Reference: patent US20040055024A1, “Conditional mutants of influenza virus M2 protein” (Medical Research Council, priority 1998, published 2004)

Columns and labels:
murine MEL cells = format: cell-based, mouse
[1] = tested on: T-lymphocyte development (thymus, spleen); conditions: mouse, in vivo
thymic rudiments = test: Foetal thymic organ culture of transgenic embryos in the presence of rimantadine; format: cell-based, mouse; conditions: thymic lobes of 15 day embryos, 7 to 10 days culture with rimantadine, FACS
Excerpt: Opin. Immunol. 6:293-297.
Embryo sacs are removed from 15-day pregnant mice and the embryos released by cutting the umbilical cord. The embryos are stored on ice; non-embryo tissue is discarded. Any abnormal embryos, or asynchronous embryos as judged by size, are also discarded at this stage.
Foetal thymic lobes are dissected from the embryo and cultured on Costar filters (Coming) on RPMI medium. The filters are transferred to a new well of medium every day during the experiment.
At between 7 and 10 days, the thymic lobes are harvested, transferred to an eppendorf tube containing 200 μl medium, and the cells separated by teasing out mechanically. The cells are then analysed by FACS as described above.
In a second series of experiments, the thymic rudiments are cultured in the presence of rimantadine, and the cells analysed by FACS as described above.

SMILES: CC(N)C12CC3CC(CC(C3)C1)C2 (stereo not shown) [Rimantadine]
- cell kinetics after induction (murine MEL cells): preceded by two cell doublings before terminal differentiation and growth arrest
- cloning of M2(H37A) mutant in MEL cells (murine MEL cells): the mutant can be cloned
- rescue of the lack of T-cells by administration of rimantadine [1]: not rescuable
- rescue of T-cell production (thymic rudiments): able to rescue T-cell production in the thymic rudiments
